Laboratory results from PubChem BioAssay AID270 (DTP/NCI, 2004).
Values joined by “and” are separate entries in the source; they are usually repeats but may differ in a detail not shown here. Equal values may be shown once. Records with an inconclusive call do not appear.

Test system: BDF1 mice, s.c. Lewis lung carcinoma, T/C %
Assay: NCI In Vivo Anticancer Drug Screen. Data for tumor model Lewis Lung Carcinoma (subcutaneous) in B6D2F1 (BDF1) mice
Summary of the method: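 The value reflects a ratio in which the treated cohort's survival time or tumour size is compared against mice receiving only vehicle.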

S=c1nc[nH]c2nc[nH]c12
T/C (endpoint: mean tumor weight, dose: 5.0 mg/kg/injection, schedule: Q01DX011 (ip), vehicle: alkali diluted with saline, higher = larger tumour): 58 % of control | T/C (endpoint: mean tumor weight, dose: 10.0 mg/kg/injection, schedule: Q01DX011 (ip), vehicle: alkali diluted with saline, higher = larger tumour): 60 % of control | T/C (endpoint: mean tumor weight, dose: 12.5 mg/kg/injection, schedule: Q01DX011 (ip), vehicle: alkali diluted with saline, higher = larger tumour): 62 % of control | T/C (endpoint: mean tumor weight, dose: 20.0 mg/kg/injection, schedule: Q01DX011 (ip), vehicle: alkali diluted with saline, higher = larger tumour): 51 % of control | T/C (endpoint: mean tumor weight, dose: 25.0 mg/kg/injection, schedule: Q01DX011 (ip), vehicle: alkali diluted with saline, higher = larger tumour): 66 % of control | T/C (endpoint: mean tumor weight, dose: 50.0 mg/kg/injection, schedule: Q01DX011 (ip), vehicle: alkali diluted with saline, higher = larger tumour): 62 % of control | T/C (endpoint: median survival time, dose: 0.3 mg/kg/injection, schedule: Q01DX000 (ip), vehicle: alkali diluted with saline, higher = longer survival): 106 % of control | T/C (endpoint: median survival time, dose: 1.0 mg/kg/injection, schedule: Q01DX009 (ip), vehicle: saline, higher = longer survival): 106 % of control | T/C (endpoint: median survival time, dose: 2.0 mg/kg/injection, schedule: Q01DX009 (ip), vehicle: saline, higher = longer survival): 121 % of control | T/C (endpoint: median survival time, dose: 3.0 mg/kg/injection, schedule: Q01DX000 (ip), vehicle: alkali diluted with saline, higher = longer survival): 101 % of control | T/C (endpoint: median survival time, dose: 4.0 mg/kg/injection, schedule: Q01DX009 (ip), vehicle: saline, higher = longer survival): 117 % of control | T/C (endpoint: median survival time, dose: 8.0 mg/kg/injection, schedule: Q01DX009 (ip), vehicle: saline, higher = longer survival): 121 % of control | T/C (endpoint: median survival time, dose: 10.0 mg/kg/injection, schedule: Q01DX011 (ip), vehicle: alkali diluted with saline, higher = longer survival): 98 % of control | T/C (endpoint: median survival time, dose: 15.0 mg/kg/injection, schedule: Q01DX009 (ip), vehicle: saline with Tween-80, higher = longer survival): 108 % of control | T/C (endpoint: median survival time, dose: 20.0 mg/kg/injection, schedule: Q01DX011 (ip), vehicle: alkali diluted with saline, higher = longer survival): 91 % of control | T/C (endpoint: median survival time, dose: 30.0 mg/kg/injection, schedule: Q01DX000 (ip), vehicle: alkali diluted with saline, higher = longer survival): 97 % of control | T/C (endpoint: median survival time, dose: 30.0 mg/kg/injection, schedule: Q01DX009 (ip), vehicle: Klucel (hydroxypropylcellulose) (HPC), higher = longer survival): 104 % of control | T/C (endpoint: median survival time, dose: 40.0 mg/kg/injection, schedule: Q01DX011 (ip), vehicle: alkali diluted with saline, higher = longer survival): 89 % of control | T/C (endpoint: median tumor weight (est.), dose: 15.0 mg/kg/injection, schedule: Q01DX009 (ip), vehicle: saline with Tween-80, higher = larger tumour): 79 % of control | T/C (endpoint: median tumor weight (est.), dose: 30.0 mg/kg/injection, schedule: Q01DX009 (ip), vehicle: saline with Tween-80, higher = larger tumour): 72 % of control | T/C (endpoint: median tumor weight (est.), dose: 35.0 mg/kg/injection, schedule: Q01DX011 (ip), vehicle: alkali diluted with saline, higher = larger tumour): 44 % of control | T/C (endpoint: median tumor weight (est.), dose: 51.0 mg/kg/injection, schedule: Q01DX011 (ip), vehicle: alkali diluted with saline, higher = larger tumour): 38 % of control | T/C (endpoint: median tumor weight (est.), dose: 80.0 mg/kg/injection, schedule: Q01DX011 (ip), vehicle: alkali diluted with saline, higher = larger tumour): 70 % of control and 75 % of control and 93 % of control

COc1cc(NS(C)(=O)=O)ccc1Nc1c2ccccc2nc2c(C)cccc12
T/C (endpoint: median survival time, dose: 1.25 mg/kg/injection, schedule: Q01DX009 (ip), vehicle: Klucel (hydroxypropylcellulose) (HPC), higher = longer survival): 103 % of control | T/C (endpoint: median survival time, dose: 5.0 mg/kg/injection, schedule: Q01DX009 (ip), vehicle: Klucel (hydroxypropylcellulose) (HPC), higher = longer survival): 121 % of control

O=NN(CCF)C(=O)NC1CCSCC1
T/C (endpoint: median survival time, dose: 2.5 mg/kg/injection, schedule: Q01DX009 (ip), vehicle: saline with Tween-80, higher = longer survival): 114 % of control | T/C (endpoint: median survival time, dose: 2.5 mg/kg/injection, schedule: Q01DX009 (ip), vehicle: saline, higher = longer survival): 103 % of control | T/C (endpoint: median survival time, dose: 5.0 mg/kg/injection, schedule: Q01DX009 (ip), vehicle: saline with Tween-80, higher = longer survival): 191 % of control | T/C (endpoint: median survival time, dose: 5.0 mg/kg/injection, schedule: Q01DX009 (ip), vehicle: saline, higher = longer survival): 113 % of control | T/C (endpoint: median survival time, dose: 10.0 mg/kg/injection, schedule: Q01DX009 (ip), vehicle: saline, higher = longer survival): 204 % of control | T/C (endpoint: median survival time, dose: 13.0 mg/kg/injection, schedule: Q04DX004 (ip), vehicle: saline with Tween-80, higher = longer survival): 279 % of control | T/C (endpoint: median survival time, dose: 18.0 mg/kg/injection, schedule: Q04DX004 (ip), vehicle: saline with Tween-80, higher = longer survival): 194 % of control and 345 % of control | T/C (endpoint: median survival time, dose: 20.0 mg/kg/injection, schedule: Q01DX009 (ip), vehicle: saline, higher = longer survival): 108 % of control | T/C (endpoint: median survival time, dose: 23.0 mg/kg/injection, schedule: Q04DX004 (ip), vehicle: saline with Tween-80, higher = longer survival): 122 % of control | T/C (endpoint: median survival time, dose: 25.0 mg/kg/injection, schedule: Q07DX002 (ip), vehicle: saline with Tween-80, higher = longer survival): 190 % of control and 381 % of control | T/C (endpoint: median survival time, dose: 39.0 mg/kg/injection, schedule: Q07DX002 (ip), vehicle: saline with Tween-80, higher = longer survival): 198 % of control | T/C (endpoint: median tumor weight (est.), dose: 14.0 mg/kg/injection, schedule: Q01DX001 (ip), vehicle: saline with Tween-80, higher = larger tumour): 53 % of control | T/C (endpoint: median tumor weight (est.), dose: 27.0 mg/kg/injection, schedule: Q01DX001 (ip), vehicle: saline with Tween-80, higher = larger tumour): 8 % of control

CC(=O)OC1C=CC(=O)OC1C1OC1C (configuration not stated)
T/C (endpoint: mean tumor weight, dose: 4.0 mg/kg/injection, schedule: Q01DX011 (ip), vehicle: saline, higher = larger tumour): 105 % of control | T/C (endpoint: mean tumor weight, dose: 6.0 mg/kg/injection, schedule: Q01DX011 (ip), vehicle: saline, higher = larger tumour): 81 % of control | T/C (endpoint: mean tumor weight, dose: 9.0 mg/kg/injection, schedule: Q01DX011 (ip), vehicle: saline, higher = larger tumour): 91 % of control | T/C (endpoint: mean tumor weight, dose: 19.0 mg/kg/injection, schedule: Q01DX011 (ip), vehicle: saline, higher = larger tumour): 62 % of control
